Test results taken from patent US8383094B2, “Hepatitis C virus inhibitors” (Bristol-Myers Squibb Company, priority 2008, dated 2013).

system: HCV 1b genotype; test: HCV Replicon assay (HCV-neo replicon cells, wild-type); type: cell-based; conditions: HCV 1b genotype replicon; range class A-D; read-out: 1b EC50 (in μM or range)
Protocol: An HCV Replicon assay was utilized in the present disclosure, and was prepared, conducted and validated as described in commonly owned PCT/US2006/022197 and in O′Boyle et. al. Antimicrob Agents Chemother, 2005 April; 49(4):1346-53. Assay methods incorporating luciferase reporters have also been used as described (Apath.com).
HCV-neo replicon cells and replicon cells containing mutations in the NS5A region were used to test the currently described family of compounds. The compounds were determined to have more than 10-fold less inhibitory activity on cells containing mutations than wild-type cells. Thus, the compounds of the present disclosure can be effective in inhibiting the function of the HCV NS5A protein and are understood to be as effective in combinations as previously described in application PCT/US2006/022197 and commonly owned WO/04014852. Further, the compounds of the present disclosure can be effective against the HCV 1b genotype. It should also be understood that the compounds of the present disclosure can inhibit multiple genotypes of HCV. […] In one embodiment, compounds of the present disclosure are inhibitory versus 1a, 1b, 2a, 2b, 3a, 4a, and 5a genotypes.

Compound | EC50 [µM]
O=C1CN(C(C(=O)N2CCC[C@H]2C(=O)Nc2ccc(C#Cc3ccc(NC(=O)[C@@H]4CCCN4C(=O)C(c4ccccc4)N4CCNC(=O)C4)cc3)cc2)c2ccccc2)CCN1 (single isomer, unassigned) [VN33.5] | 0.1 to 0.999

same assay, conditions: HCV 1b genotype replicon; read-out: 1b EC50 (in μM or range)

Compound | EC50 [µM]
CN1C[C@@H]2C[C@H]1CN2C(C(=O)N1CCC[C@H]1C(=O)Nc1ccc(C#Cc2ccc(NC(=O)[C@@H]3CCCN3C(=O)C(c3ccccc3)N3C[C@@H]4C[C@H]3CN4C)cc2)cc1)c1ccccc1 (stereo partly drawn) [VN18, (2S,2′S)-N,N′-(1,2-ethynediyldi-4,1-phenylene)bis(1-(((1S,4S)-5-methyl-2,5-diazabicyclo[2.2.1]hept-2-yl)(phenyl)acetyl)-2-pyrrolidinecarboxamide)] | 0.13

same assay, conditions: Hepatitis C virus, HCV 1b genotype replicon; range class A-D; read-out: 1b EC50 (in μM or range)

Compound | EC50 [µM]
CC(=O)N(C)C(C(=O)N1CCC[C@H]1C(=O)Nc1ccc(C#Cc2ccc(NC(=O)[C@@H]3CCCN3C(=O)C(c3ccccc3)N(C)C(C)=O)cc2)cc1)c1ccccc1 (stereo partly drawn) [VN46, (2S,2′S)-N,N′-(1,2-ethynediyldi-4,1-phenylene)bis(1-((acetyl(methyl)amino)(phenyl)acetyl)-2-pyrrolidinecarboxamide)] | 0.1 to 0.999
O=C(Nc1ccc(C#Cc2ccc(NC(=O)[C@@H]3CCCN3C(=O)[C@@H](c3ccccc3)N3CCCC3)cc2)cc1)[C@@H]1CCCN1C(=O)[C@@H](c1ccccc1)N1CCCC1 [VN12, (2S,2′S)-N,N′-(1,2-ethynediyldi-4,1-phenylene)bis(1-((2R)-2-phenyl-2-(1-pyrrolidinyl)acetyl)-2-pyrrolidinecarboxamide)] | < 0.00457
O=C(Nc1ccc(C#Cc2ccc(NC(=O)[C@@H]3CCCN3C(=O)Cc3cccnc3)cc2)cc1)[C@@H]1CCCN1C(=O)Cc1cccnc1 [Example D39, (2S,2′S)-N,N′-(1,2-ethynediyldi-4,1-phenylene)bis(1-(3-pyridinylacetyl)-2-pyrrolidinecarboxamide)] | < 0.00457
O=C(Nc1ccc(C#Cc2ccc(NC(=O)[C@@H]3CCCN3C(=O)OCc3ccccc3)cc2)cc1)C1CCC1 [Example D20, Benzyl (2S)-2-((4-((4-((cyclobutylcarbonyl)amino)phenyl)ethynyl)phenyl)carbamoyl)-1-pyrrolidinecarboxylate] | 0.1 to 0.999
CN(CC(N)=O)C(C(=O)N1CCC[C@H]1C(=O)Nc1ccc(C#Cc2ccc(NC(=O)[C@@H]3CCCN3C(=O)C(c3ccccc3)N(C)CC(N)=O)cc2)cc1)c1ccccc1 (stereo partly drawn) [VN45, (2S,2′S)-N,N′-(1,2-ethynediyldi-4,1-phenylene)bis(1-(((2-amino-2-oxoethyl)(methyl)amino)(phenyl)acetyl)-2-pyrrolidinecarboxamide)] | 0.00457 to 0.099
CC(=O)N[C@H](C)C(=O)N1CCC[C@H]1C(=O)Nc1ccc(C#Cc2ccc(NC(=O)[C@@H]3CCCN3C(=O)[C@@H](C)NC(C)=O)cc2)cc1 [VN14, (2S,2′S)-N,N′-(1,2-ethynediyldi-4,1-phenylene)bis(1-((2R)-2-acetamidopropanoyl)-2-pyrrolidinecarboxamide)] | 0.00457 to 0.099
O=C(Nc1ccc(C#Cc2ccc(NC(=O)[C@@H]3CCCN3C(=O)c3nc(Cl)cc4ccccc34)cc2)cc1)[C@@H]1CCCN1C(=O)c1nc(Cl)cc2ccccc12 [Example D31, (2S,2′S)-N,N′-(1,2-ethynediyldi-4,1-phenylene)bis(1-((3-chloro-1-isoquinolinyl)carbonyl)-2-pyrrolidinecarboxamide)] | 0.00457 to 0.099
O=C(CC1CC1)Nc1ccc(C#Cc2ccc(NC(=O)[C@@H]3CCCN3C(=O)Cc3ccccc3)cc2)cc1 [Example D16, N-(4-((4-((cyclopropylacetyl)amino)phenyl)ethynyl)phenyl)-1-(phenylacetyl)-L-prolinamide] | 0.1 to 0.999
CN(C)C1(C(=O)N2CCC[C@H]2C(=O)Nc2ccc(C#Cc3ccc(NC(=O)[C@@H]4CCCN4C(=O)C4(N(C)C)CCc5ccccc54)cc3)cc2)CCc2ccccc21 (stereo partly drawn) [VN41, (2S,2′S)-N,N′-(1,2-ethynediyldi-4,1-phenylene)bis(1-((1-(dimethylamino)-2,3-dihydro-1H-inden-1-yl)carbonyl)-2-pyrrolidinecarboxamide)] | < 0.00457
O=C(Nc1ccc(C#Cc2ccc(NC(=O)[C@@H]3CCCN3C(=O)c3nccc4ccccc34)cc2)cc1)[C@@H]1CCCN1C(=O)c1nccc2ccccc12 [Example D28, (2S,2′S)-N,N′-(1,2-ethynediyldi-4,1-phenylene)bis(1-(1-isoquinolinylcarbonyl)-2-pyrrolidinecarboxamide)] | 0.1 to 0.999
C[C@@](O)(C(=O)N1CCC[C@H]1C(=O)Nc1ccc(C#Cc2ccc(NC(=O)[C@@H]3CCCN3C(=O)[C@@](C)(O)c3ccccc3)cc2)cc1)c1ccccc1 [VN1, (2S,2′S)-N,N′-(1,2-ethynediyldi-4,1-phenylene)bis(1-((2S)-2-hydroxy-2-phenylpropanoyl)-2-pyrrolidinecarboxamide)] | < 0.00457
CN(C)C(C)(C(=O)N1CCC[C@H]1C(=O)Nc1ccc(C#Cc2ccc(NC(=O)[C@@H]3CCCN3C(=O)C(C)(c3ccccc3)N(C)C)cc2)cc1)c1ccccc1 (stereo partly drawn) [VN37, (2S,2′S)-N,N′-(1,2-ethynediyldi-4,1-phenylene)bis(1-(2-(dimethylamino)-2-phenylpropanoyl)-2-pyrrolidinecarboxamide)] | < 0.00457
O=C(Nc1ccc(C#Cc2ccc(NC(=O)[C@@H]3CCCN3C(=O)c3nc(Cl)cc4ccccc34)cc2)cc1)[C@@H]1CCCN1C(=O)Cc1cccnc1 [Example D40, (2S)-1-((3-Chloro-1-isoquinolinyl)carbonyl)-N-(4-((4-((((2S)-1-(3-pyridinylacetyl)-2-pyrrolidinyl)carbonyl)amino)phenyl)ethynyl)phenyl)-2-pyrrolidinecarboxamide] | 0.00457 to 0.099

same assay, conditions: Hepatitis C virus, HCV 1b genotype replicon; read-out: 1b EC50 (in μM or range)

Compound | EC50 [µM]
CC(=O)N1CCC[C@H]1C(=O)Nc1ccc(C#Cc2ccc(NC(=O)[C@@H]3CCCN3C(=O)Cc3ccccc3)cc2)cc1 [Example D22, (2S)-1-Acetyl-N-(4-((4-((((2S)-1-(phenylacetyl)-2-pyrrolidinyl)carbonyl)amino)phenyl)ethynyl)phenyl)-2-pyrrolidinecarboxamide] | 0.14
O=C(Nc1cccc(C#Cc2cccc(NC(=O)[C@@H]3CCCN3C(=O)OCc3ccccc3)n2)n1)[C@@H]1CCCN1C(=O)OCc1ccccc1 [YQ1, dibenzyl (2S,2′S)-2,2′-(1,2-ethynediylbis(6,2-pyridinediylcarbamoyl))di(1-pyrrolidinecarboxylate)] | 0.007
CC(=O)N1CCC[C@H]1C(=O)Nc1ccc(C#Cc2ccc(NC(=O)[C@@H]3CCCN3C(=O)c3nccc4ccccc34)nc2)cc1 [Example D56, (2S)-1-Acetyl-N-(4-((6-((((2S)-1-(1-isoquinolinylcarbonyl)-2-pyrrolidinyl)carbonyl)amino)-3-pyridinyl)ethynyl)phenyl)-2-pyrrolidinecarboxamide] | 2.09
CC(=O)N1CCC[C@H]1C(=O)Nc1ccc(C#Cc2ccc(NC(=O)[C@@H]3CCCN3C(=O)c3cccc4ccccc34)nc2)cc1 [Example D59, (2S)-1-Acetyl-N-(4-((6-((((2S)-1-(1-naphthoyl)-2-pyrrolidinyl)carbonyl)amino)-3-pyridinyl)ethynyl)phenyl)-2-pyrrolidinecarboxamide] | 1.48

same assay, conditions: Hepatitis C virus, read-out: 1b EC50 (in μM or range), HCV 1b genotype replicon; range class A-D

Compound | EC50 [µM]
CN1CCN(C(C(=O)N2CCC[C@H]2C(=O)Nc2ccc(C#Cc3ccc(NC(=O)[C@@H]4CCCN4C(=O)C(c4ccccc4)N4CCN(C)CC4)cc3)cc2)c2ccccc2)CC1 (stereo partly drawn) [VA44, (2S,2′S)-N,N′-(1,2-ethynediyldi-4,1-phenylene)bis(1-((4-methyl-1-piperazinyl)(phenyl)acetyl)-2-pyrrolidinecarboxamide)] | < 0.00457
